Tested on: Mycoplasma pneumoniae strain M129 (ATCC 29342)
Assay: Time-kill curves
Type: cell-based
Set-up: M. pneumoniae count in time-kill curve: unit not given here
Method: Mycoplasma pneumoniae strain M129 (ATCC 29342) was obtained from American Type Culture Collection (Manassas, VA, United States) and cultured at 37°C in the presence of 5% CO2 in the modified SP-4 liquid medium (pH 7.4) containing 2.1% (w/v) CM1166 mycoplasma broth base medium (Oxoid, Hants, United Kingdom), 20% (v/v) fetal bovine serum (FBS, Bioexplorer, CO, United States), 0.4% yeast extract (Oxoid), 0.55% (w/v) CMRL 1066 w/L-glutamine culture media powder (MyBioSource, San Diego, CA, United States), 1% D-glucose (Macklin) and 0.004% phenol red (Macklin). […] The solid medium is based on the above formula with the addition of 1% agar, and the characteristic fried egg-like colonies were used for experiments following incubation for 7 d on plates.
The tubes were incubated at 37°C in 5% CO2 for 72 h, and 200 µL of the culture was removed every 12 h for 10-fold serial dilutions. The diluted cultures were plated on plates for further culture and counted after 7 d. The experiment was repeated three times.

With `O=C(O)c1cn(C2CC2)c2cc(N3CCNCC3)c(F)cc2c1=O` [ciprofloxacin] the “M. pneumoniae count in time-kill curve” value (1×MIC, time 0) was 7.07, the “M. pneumoniae count in time-kill curve” value (1×MIC, time 12) was 6.346 and the “M. pneumoniae count in time-kill curve” value (1×MIC, time 24) was 6.462. For the same compound, the “M. pneumoniae count in time-kill curve” value (1×MIC, time 36) was 6.137, the “M. pneumoniae count in time-kill curve” value (1×MIC, time 48) was 6.414 and the “M. pneumoniae count in time-kill curve” value (1×MIC, time 60) was 6.605. For the same compound, the “M. pneumoniae count in time-kill curve” value (1×MIC, time 72) was 5.901, the “M. pneumoniae count in time-kill curve” value (2×MIC, time 0) was 7.07 and the “M. pneumoniae count in time-kill curve” value (2×MIC, time 12) was 6.0302. For the same compound, the “M. pneumoniae count in time-kill curve” value (2×MIC, time 24) was 6.128, the “M. pneumoniae count in time-kill curve” value (2×MIC, time 36) was 5.661 and the “M. pneumoniae count in time-kill curve” value (2×MIC, time 48) was 5.8. The “M. pneumoniae count in time-kill curve” value (2×MIC, time 60) was 5.6841, the “M. pneumoniae count in time-kill curve” value (2×MIC, time 72) was 4.597 and the “M. pneumoniae count in time-kill curve” value (4×MIC, time 0) was 7.07. The “M. pneumoniae count in time-kill curve” value (4×MIC, time 12) was 5.551, the “M. pneumoniae count in time-kill curve” value (4×MIC, time 24) was 5.334 and the “M. pneumoniae count in time-kill curve” value (4×MIC, time 36) was 5.292. The “M. pneumoniae count in time-kill curve” value (4×MIC, time 48) was 5.137, the “M. pneumoniae count in time-kill curve” value (4×MIC, time 60) was 5.179 and the “M. pneumoniae count in time-kill curve” value (4×MIC, time 72) was 4.3324. For the same compound, the “M. pneumoniae count in time-kill curve” value (8×MIC, time 0) was 7.07, the “M. pneumoniae count in time-kill curve” value (8×MIC, time 12) was 5.507 and the “M. pneumoniae count in time-kill curve” value (8×MIC, time 24) was 4.574. The “M. pneumoniae count in time-kill curve” value (8×MIC, time 36) was 4.144, the “M. pneumoniae count in time-kill curve” value (8×MIC, time 48) was 4.238 and the “M. pneumoniae count in time-kill curve” value (8×MIC, time 60) was 3.8395. The “M. pneumoniae count in time-kill curve” value (8×MIC, time 72) was 3.628, the “M. pneumoniae count in time-kill curve” value (16×MIC, time 0) was 7.07 and the “M. pneumoniae count in time-kill curve” value (16×MIC, time 12) was 5.235. The “M. pneumoniae count in time-kill curve” value (16×MIC, time 24) was 4.279, the “M. pneumoniae count in time-kill curve” value (16×MIC, time 36) was 3.946 and the “M. pneumoniae count in time-kill curve” value (16×MIC, time 48) was 3.861. For the same compound, the “M. pneumoniae count in time-kill curve” value (16×MIC, time 60) was 3.824, the “M. pneumoniae count in time-kill curve” value (16×MIC, time 72) was 3.354 and the “M. pneumoniae count in time-kill curve” value (32×MIC, time 0) was 7.07. The “M. pneumoniae count in time-kill curve” value (32×MIC, time 12) was 4.952, the “M. pneumoniae count in time-kill curve” value (32×MIC, time 24) was 4.119 and the “M. pneumoniae count in time-kill curve” value (32×MIC, time 36) was 3.694. The “M. pneumoniae count in time-kill curve” value (32×MIC, time 48) was 3.873, the “M. pneumoniae count in time-kill curve” value (32×MIC, time 60) was 3.5568 and the “M. pneumoniae count in time-kill curve” value (32×MIC, time 72) was 3.233. The “M. pneumoniae count in time-kill curve” value (64×MIC, time 0) was 7.07, the “M. pneumoniae count in time-kill curve” value (64×MIC, time 12) was 5.252 and the “M. pneumoniae count in time-kill curve” value (64×MIC, time 24) was 3.933. The “M. pneumoniae count in time-kill curve” value (64×MIC, time 36) was 3.756, the “M. pneumoniae count in time-kill curve” value (64×MIC, time 48) was 3.771 and the “M. pneumoniae count in time-kill curve” value (64×MIC, time 60) was 3.185. The “M. pneumoniae count in time-kill curve” value (64×MIC, time 72) was 2.981.
